Laboratory results from patent US7994329B2, “Growth hormone secretagogue receptor type 1A agonists” (Helsinn Therapeutics (U.S.), Inc., priority 2000, dated 2011).
Like-named read-outs stand apart in the source and are kept apart here. No end group written: not given here.

Experiments:
food intake = assay: Food intake in non-deprived male Wistar rats (feeding boxes); format: in vivo, rat; details: 3 hours after injection
Procedure: Food intake was measured in feeding boxes with standard chow and water placed on balances connected to a computer. Changes in weight of chow and water were continuously registered. Food and water intake were measured for 3 hours after drug injection during early daytime, when food intake is normally at a very low level.
The effect on feeding was tested after icy injections in non-deprived male Wistar rats. The compounds were dissolved in 5 μl saline and injected in the following doses: 10.0 μg per rat (NNC 26-1291) and 30.0 μg per rat (NN703 and NNC 26-1187).
Food intake was measured in feeding boxes, where standard chow and water were placed on balances and changes in weight continuously registered. Food and water intake was measured for 3 hours after drug injection in the beginning of the light part of the diurnal cycle, when food intake is normally at a very low level. […] For comparison, food intake in control animals is normally about 1 gram, and icy administration of 10 μg porcine neuropeptide Y (NPY), which has a strong effect on food intake, increases food consumption to about 8 grams in this model.
Non-deprived male Wistar rats (n=6-10) were used for the study, dosed with vehicle or with ghrelin at 10 μg/rat icy dissolved in 5 μl saline. Food intake was measured in conscious animals, using feeding boxes. Food and water intake were measured for 3 hours after drug injection during early daytime, when food intake is normally at a very low level. GH release was measured in Halothane-anaesthetized animals from which blood samples were obtained, before dosing and 10 min after dosing, via the orbital plexus. The plasma was analyzed for rat GH.

GH release [1] = assay: GH release in anaesthetized rats (plasma rat GH); format: in vivo
Procedure: Blood samples were obtained from anaesthetized animals before dosing, and either 10 min after dosing or by frequent blood sampling through a catheter up until 45 min after dosing. The plasma was analyzed for rat GH.
Non-deprived male Wistar rats (n=6-10) were used for the study, dosed with vehicle or with ghrelin at 10 μg/rat icy dissolved in 5 μl saline. […] GH release was measured in Halothane-anaesthetized animals from which blood samples were obtained, before dosing and 10 min after dosing, via the orbital plexus. The plasma was analyzed for rat GH.

rat pituitary cells = assay: GH secretion from rat pituitary cells; format: cell-based
GHS-R 1A = target: T1, GHS-R 1A (Homo sapiens, UniProt Q92847); assay: Receptor binding assay, membranes of BHK/GHS-R 1A cells
T1 construct: expressed in transfected cells; host or cells: BHK cells, stably transfected
Procedure: Briefly, crude membranes from stably transfected BHK/GHS-R 1A cells were suspended at 0.5 mg protein/ml in homogenization buffer (25 mM Tris-base, 2.5 mM EDTA, 10 mM MgCl2 and 30 μg/ml bacitracin). […] The filters were subsequently washed in 0.9% NaCl and counted using an Optiphase™ ‘HiSafe 3’ counter (Wallac, Turku, Finland).
Specific binding was determined as the difference between total binding and non-specific binding (binding in the presence of 10 μM unlabelled ligand). Binding curves were generated using either the non-linear regression or hyperbolic fit feature of the GraphPad™ Prism software package (GraphPad, San Diego, Calif., U.S.A.).

GH release [2] = details: cited from earlier work
[3] = read-out: Binding affinity to the GHS-R 1A (Ki)

T1 sequence (Q92847 whole entry): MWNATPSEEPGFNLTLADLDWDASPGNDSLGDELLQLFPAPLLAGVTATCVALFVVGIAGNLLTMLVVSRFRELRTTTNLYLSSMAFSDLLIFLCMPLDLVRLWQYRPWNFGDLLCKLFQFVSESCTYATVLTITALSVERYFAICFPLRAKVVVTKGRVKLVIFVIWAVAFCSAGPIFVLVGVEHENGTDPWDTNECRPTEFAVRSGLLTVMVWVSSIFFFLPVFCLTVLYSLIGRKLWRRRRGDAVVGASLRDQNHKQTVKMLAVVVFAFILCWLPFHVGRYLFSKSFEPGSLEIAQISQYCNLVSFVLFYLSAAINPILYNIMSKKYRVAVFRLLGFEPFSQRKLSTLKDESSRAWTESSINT

## Nc1ncnc2c1ncn2[C@@H]1O[C@H](CO)[C@@H](O)[C@H]1O [Adenosine, adenosine]
Food intake; 1 μg/rat icy
  Effect on food intake vs vehicle: no effect
Food intake; 10 μg/rat icy
  Effect on food intake vs vehicle: food intake was significantly increased
GH release [1]; adenosine 1 mg/kg iv, also 10 mg/kg iv in pentobarbital anaesthetized female SD rats
  GH release after intravenous (iv) administration: did not stimulate GH release
GH release [1]; adenosine 10 and 100 μg/rat icy, Halothane anaesthetized male Wistar rats
  GH release after intracerebroventricular (icy) administration: did not stimulate GH release
Rat pituitary cells
  Stimulation of GH secretion from rat pituitary cells: unable to stimulate GH secretion

## CNC(=O)[C@@H](Cc1ccccc1)N(C)C(=O)[C@@H](Cc1ccc2ccccc2c1)N(C)C(=O)/C=C/CC(C)(C)N [NN703]
Food intake; 30.0 μg per rat icy
  Food intake: about 3 grams
GHS-R 1A; [3]
  Ki: 112 ± 29 nM

## CN(CCc1ccccn1)C(=O)[C@@H](Cc1ccccc1)N(C)C(=O)[C@@H](Cc1ccc2ccccc2c1)N(C)C(=O)/C=C/CC(C)(C)N [NNC 26-1187]
GHS-R 1A; [3]
  Ki: 22.2 ± 7 nM

## CN(C)N(C)C(=O)C1(Cc2ccccc2)CCCN(C(=O)[C@@H](Cc2c[nH]c3ccccc23)NC(=O)C(C)(C)N)C1 (stereo partly drawn) [NNC 26-1291]
GHS-R 1A
  Ki: 0.4 ± 0.06 nM

## ghrelin (GSSFLSPEHQRVQQRKESKKPPAKLQPR; ends and bridges not checked; UniProt Q9UBU3 24-51, looked up) [peptide described by Kojima in Nature (1999), vol; 402, 656-660, reference compound]
Food intake; 10 μg/rat icy
  Effect on food intake vs vehicle: significant effect on feeding
GH release [2]
  GH release after iv administration: causes stimulation of GH release
GH release [1]; ghrelin 10 μg/rat icy, Halothane-anaesthetized male Wistar rats, 10 min after dosing
  GH release after icy administration: did not stimulate GH release
